# Assay results reported in ChEMBL document CHEMBL4665814, “Structurally Diverse Labdane Diterpenoids from Leonurus japonicus and Their Anti-inflammatory Properties in LPS-Induced RAW264.7 Cells” (J Nat Prod, 2020).
# The source made the active and inactive calls. No cut-off for these calls is given here.
# Legend:
# RAW264.7 [1] = test: Anti-inflammatory activity in mouse RAW264.7 cells assessed as inhibition of LPS-induced NO production preincubated for 2 hrs followed by LPS addition and measured after 18 hrs by Griess reagent-based assay; type: functional, cell-based
# [2] = target: T1, Inhibitor of nuclear factor kappa-B kinase subunit alpha (Mus musculus) (UniProt Q60680); test: Inhibition of IKKalpha in mouse RAW264.7 cells assessed as inhibition of LPS-induced IKK-alpha phosphorylation level after 16 hrs by Western blot analysis; type: cell-based
# T1 sequence (whole entry): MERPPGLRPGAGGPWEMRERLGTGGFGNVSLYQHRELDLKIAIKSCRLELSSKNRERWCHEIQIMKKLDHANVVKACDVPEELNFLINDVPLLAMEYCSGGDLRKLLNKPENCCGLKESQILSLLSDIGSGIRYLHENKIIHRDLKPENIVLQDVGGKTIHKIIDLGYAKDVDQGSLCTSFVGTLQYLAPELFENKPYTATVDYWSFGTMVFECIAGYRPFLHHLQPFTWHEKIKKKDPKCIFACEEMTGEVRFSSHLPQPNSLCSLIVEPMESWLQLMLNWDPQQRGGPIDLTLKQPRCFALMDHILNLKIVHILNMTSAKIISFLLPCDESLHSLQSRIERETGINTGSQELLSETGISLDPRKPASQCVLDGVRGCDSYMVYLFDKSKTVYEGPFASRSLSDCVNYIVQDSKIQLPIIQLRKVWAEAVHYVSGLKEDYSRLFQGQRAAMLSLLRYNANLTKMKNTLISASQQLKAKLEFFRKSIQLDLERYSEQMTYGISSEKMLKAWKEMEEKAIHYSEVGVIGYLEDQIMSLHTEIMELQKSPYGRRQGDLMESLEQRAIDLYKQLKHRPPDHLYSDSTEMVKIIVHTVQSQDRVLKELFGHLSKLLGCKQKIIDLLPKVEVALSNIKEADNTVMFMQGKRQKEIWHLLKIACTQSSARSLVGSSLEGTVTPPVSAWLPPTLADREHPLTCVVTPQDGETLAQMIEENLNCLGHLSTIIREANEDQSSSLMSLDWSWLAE
# RAW264.7 [3] = test: Anti-inflammatory activity in mouse RAW264.7 cells assessed as inhibition of LPS-induced COX-2 level after 16 hrs by Western blot analysis; type: functional, cell-based
# RAW264.7 [4] = test: Cytotoxicity against mouse RAW264.7 cells assessed as reduction in cell viability at 3.1 to 25 uM after 48 hrs by MTT assay; type: cell-based; conditions: raw264.7, 48 h, dose 3.1-25 µM
# RAW264.7 [5] = test: Anti-inflammatory activity in mouse RAW264.7 cells assessed as inhibition of LPS-induced IL-6 level after 24 hrs by ELISA; type: functional, cell-based
# RAW264.7 [6] = test: Anti-inflammatory activity in mouse RAW264.7 cells assessed as inhibition of LPS-induced iNOS level after 16 hrs by Western blot analysis; type: functional, cell-based
# [7] = target: T2, Inhibitor of nuclear factor kappa-B kinase subunit beta (Mus musculus) (UniProt O88351); test: Inhibition of IKKbeta in mouse RAW264.7 cells assessed as inhibition of LPS-induced IKK-beta phosphorylation level after 16 hrs by Western blot analysis; type: cell-based
# T2 sequence (whole entry): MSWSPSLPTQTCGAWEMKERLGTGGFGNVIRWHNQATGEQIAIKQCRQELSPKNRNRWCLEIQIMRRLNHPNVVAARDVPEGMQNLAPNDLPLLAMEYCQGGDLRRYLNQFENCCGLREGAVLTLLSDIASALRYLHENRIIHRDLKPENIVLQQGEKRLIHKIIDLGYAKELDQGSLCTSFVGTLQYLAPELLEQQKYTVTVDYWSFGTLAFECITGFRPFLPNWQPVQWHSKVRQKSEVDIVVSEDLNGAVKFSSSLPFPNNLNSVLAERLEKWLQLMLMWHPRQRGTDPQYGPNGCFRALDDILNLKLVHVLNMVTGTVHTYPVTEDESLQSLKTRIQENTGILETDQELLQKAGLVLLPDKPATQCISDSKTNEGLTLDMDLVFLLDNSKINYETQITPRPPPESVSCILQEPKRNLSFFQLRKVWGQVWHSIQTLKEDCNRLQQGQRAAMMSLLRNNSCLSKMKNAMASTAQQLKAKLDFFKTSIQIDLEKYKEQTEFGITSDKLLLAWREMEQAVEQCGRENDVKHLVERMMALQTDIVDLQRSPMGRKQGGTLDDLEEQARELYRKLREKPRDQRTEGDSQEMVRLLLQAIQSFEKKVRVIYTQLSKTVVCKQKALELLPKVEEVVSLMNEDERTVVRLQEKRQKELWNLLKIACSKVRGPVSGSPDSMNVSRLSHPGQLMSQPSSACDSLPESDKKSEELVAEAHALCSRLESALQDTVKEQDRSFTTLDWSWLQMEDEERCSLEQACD
# RAW264.7 [8] = test: Anti-inflammatory activity in mouse RAW264.7 cells assessed as inhibition of LPS-induced IL-1beta level after 24 hrs by ELISA; type: functional, cell-based
# RAW264.7 [9] = test: Anti-inflammatory activity in mouse RAW264.7 cells assessed as inhibition of LPS-induced TNF-alpha level after 24 hrs by ELISA; type: functional, cell-based
SMILES,IC50 (RAW264.7 [1]),other results
CC1=CC[C@H]2C(C)(C)CCC[C@]2(C)[C@H]1CC/C(C)=C/CO,20 µM,–
CC1=C(CCC2=CCOC2=O)[C@@]2(C)CCCC(C)(C)[C@@H]2CC1=O,43.9 µM,–
C[C@@H]1[C@@H](O)C(=O)[C@H]2C(C)(C)CCC[C@]2(C)[C@@]1(O)CCc1ccoc1,> 50 µM,–
CC1=C(CCc2ccoc2)[C@@]2(C)CCCC(C)(C)[C@@H]2[C@H](O)C1=O,> 50 µM,–
COC1CC(O)(CCC2=C(C)C(=O)[C@@H](O)[C@H]3C(C)(C)CCC[C@]23C)CO1 (stereo partly specified),26.4 µM,–
CCOC1CC(O)(CCC2=C(C)C(=O)[C@@H](O)[C@H]3C(C)(C)[C@H](OC(C)=O)CC[C@]23C)CO1 (stereo partly specified),30.4 µM,–
CCC(=O)[C@H]1O[C@@](CCC2=CC(OC)OC2=O)(OC)[C@@]2(C)CCCC(C)(C)[C@H]12 (stereo partly specified),3.9 µM,inhibition [2]: Active; inhibition (RAW264.7 [3]): Active; Activity (RAW264.7 [4]): Non-Toxic; inhibition (RAW264.7 [5]): Dose-dependent effect; inhibition (RAW264.7 [6]): Active; inhibition [7]: Active; inhibition (RAW264.7 [8]): Dose-dependent effect; inhibition (RAW264.7 [9]): Dose-dependent effect
CCC(=O)[C@H]1O[C@@](CCc2ccoc2)(OC)[C@@]2(C)CCCC(C)(C)[C@H]12,> 50 µM,–
COC(OC)[C@@]1(C)CCC[C@@]2(C)[C@H]1CC=C(C)[C@@H]2CC/C(C)=C/CO,> 50 µM,–
C[C@@H]1C[C@H]2[C@@H]3CCC4=CC(=O)C=C[C@]4(C)[C@@]3(F)[C@@H](O)C[C@]2(C)[C@@]1(O)C(=O)CO [DEXAMETHASONE],24.3 µM,–
CC1=CC[C@@H]2[C@](C)(CCC[C@]2(C)C(=O)O)[C@H]1CC/C(C)=C/CO,41.1 µM,–
CC1=C(CCc2ccoc2)[C@@]2(C)CCC(=O)C(C)(C)[C@@H]2[C@@H](O)C1=O,> 50 µM,–
CCC(O)C(=O)[C@H]1C(C)(C)CCC[C@]1(C)C(=O)CCC1=CCOC1=O (stereo partly specified),> 50 µM,–
CC(=O)O[C@@H]1CC[C@]2(C)C(CCC3=CCOC3=O)=C(C)C(=O)[C@@H](O)[C@H]2C1(C)C,> 50 µM,–
CC(=O)O[C@@H]1CC[C@]2(C)C(CCc3ccoc3)=C(C)C(=O)[C@@H](O)[C@H]2C1(C)C,22.5 µM,–
CCOC1CC(O)(CCC2=C(C)C(=O)C(O)=C3C(C)(C)[C@H](OC(C)=O)CC[C@]23C)CO1 (stereo partly specified),21.7 µM,–
COC1C=C(CC[C@@]2(O)[C@H](C)C(=O)[C@@H](O)[C@H]3C(C)(C)CCC[C@@]32C)C(=O)O1 (stereo partly specified),24.7 µM,–
CCC(O)C(=O)[C@H]1C(C)(C)C(=O)CC[C@]1(C)C(=O)CCc1ccoc1 (stereo partly specified),> 50 µM,–
C[C@H]1C(=O)[C@@H](O)[C@H]2C(C)(C)C(=O)CC[C@]2(C)[C@@]1(O)CCc1ccoc1,> 50 µM,–

SMILES,IC50 (RAW264.7 [1]),other results
CCOC1CC(O)(CCC2=C(C)C(=O)[C@@H](O)[C@H]3C(C)(C)CCC[C@]23C)CO1 (stereo partly specified),> 50 µM,–
CC1=C(CCc2ccoc2)[C@@]2(C)CC[C@@H](O)C(C)(C)[C@@H]2[C@H](O)C1=O,> 50 µM,–
CCOC1CC(O)(CCC2=C(C)C(=O)C(O)=C3C(C)(C)C(=O)CC[C@]23C)CO1 (stereo partly specified),22.9 µM,–
CC1=C(CCc2ccoc2)[C@@]2(C)CCC(=O)C(C)(C)C2=C(O)C1=O,> 50 µM,–
CCC(=O)[C@H]1O[C@](O)(CCC2=CC(OC)OC2=O)[C@@]2(C)CCCC(C)(C)[C@H]12 (stereo partly specified),15.7 µM,–
"CCC(=O)C1O[C@](O)(CCc2ccoc2)[C@@]2(C)CCCC(C)(C)[C@H]12 (single isomer, unassigned)",> 50 µM,–
CCC(=O)[C@H]1O[C@@](CCC2=CC(OC)OC2=O)(OC)[C@@]2(C)CC[C@@H](OC(C)=O)C(C)(C)[C@H]12 (stereo partly specified),> 50 µM,–
CC1=C(CCc2ccoc2)[C@@]2(C)CCCC(C)(C)C2=C(O)C1=O,46.1 µM,–
CC(=O)O[C@@H]1CC[C@@]2(C)[C@@H](C(=O)[C@H](O)[C@@H](C)[C@]2(O)CCc2ccoc2)C1(C)C,> 50 µM,–
C[C@@H]1C(=O)C(O)=C2C(C)(C)C(=O)CC[C@]2(C)[C@@]1(O)CCc1ccoc1,> 50 µM,–
CCC(=O)[C@H]1O[C@@](CCC2=CCOC2=O)(OC)[C@@]2(C)CCCC(C)(C)[C@H]12,21.9 µM,–
C=C1CC[C@H]2C(C)(C)CCC[C@]2(C)[C@H]1CC/C(C)=C/CO,33.4 µM,–
CO[C@H]1C=C(CCC2=C(C)C(=O)C(O)=C3C(C)(C)C(=O)CC[C@]23C)C(=O)O1,> 50 µM,–
CC1=CC[C@@H]2[C@](C)(CCC[C@]2(C)C=O)[C@H]1CC/C(C)=C/CO,29 µM,–
COC1C=C(CCC2=C(C)C(=O)C(O)=C3C(C)(C)[C@H](OC(C)=O)CC[C@]23C)C(=O)O1 (stereo partly specified),40.8 µM,–
CO[C@@H]1C=C(CCC2=C(C)C(=O)C(O)=C3C(C)(C)C(=O)CC[C@]23C)C(=O)O1,> 50 µM,–
CC1=CC[C@H]2[C@@](C)(CO)CCC[C@]2(C)[C@H]1CC/C(C)=C/CO,33.4 µM,–
CCC(=O)[C@H]1O/C(=C\Cc2ccoc2)[C@@]2(C)CCCC(C)(C)[C@H]12,> 50 µM,–
COC1C=C(CCC2=C(C)C(=O)[C@@H](O)[C@H]3C(C)(C)[C@H](O)CC[C@]23C)C(=O)O1 (stereo partly specified),27.5 µM,–
